Here are results for six compounds from patent US20100048564A1, “FUSED BICYCLIC HETEROARYL DERIVATIVE” (DAIICHI SANKYO COMPANY, LIMITED, priority 2007, published 2010).

In general, Emax refers to the size of the effect at its maximum, as opposed to the concentration needed. Usually IC50 stands for the midpoint of a concentration-inhibition curve. A word on the EC50: it is the concentration at which the effect is half-maximal.

The test has as its target T1, human PPARγ2 (Homo sapiens, UniProt P37231).
T1 construct: expressed in transfected cells; host or cells: human osteosarcoma cell line MG63, transiently transfected with pSG5-hPPARγ and pGV-P2-PPRE
T1 sequence (P37231 1-505): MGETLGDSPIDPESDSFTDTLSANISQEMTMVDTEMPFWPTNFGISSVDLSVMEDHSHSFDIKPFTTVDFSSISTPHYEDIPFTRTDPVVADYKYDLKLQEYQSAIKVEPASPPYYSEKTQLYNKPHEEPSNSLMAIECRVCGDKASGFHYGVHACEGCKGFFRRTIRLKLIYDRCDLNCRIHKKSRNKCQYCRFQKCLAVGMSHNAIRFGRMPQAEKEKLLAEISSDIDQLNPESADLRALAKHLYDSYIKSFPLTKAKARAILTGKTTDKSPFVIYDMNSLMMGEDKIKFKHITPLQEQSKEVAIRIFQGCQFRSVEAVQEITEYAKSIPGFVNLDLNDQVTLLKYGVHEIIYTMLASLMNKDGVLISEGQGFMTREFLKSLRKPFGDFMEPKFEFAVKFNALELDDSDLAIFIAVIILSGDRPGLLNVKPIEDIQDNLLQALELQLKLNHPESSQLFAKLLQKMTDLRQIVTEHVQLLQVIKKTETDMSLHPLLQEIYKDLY
Kind of test: Evaluation of PPARγ modulator activity, PPRE luciferase reporter in MG63 cells (Test Example 2). It counts as cell-based. The conditions noted are these: for Emax: MG-63; for IC50: in the presence of Compound A, concentration representing (100−Imax)/2; for Imax (%): maximum inhibition of luciferase activity in the presence of Compound A. The protocol: In FIG. 3, the luciferase activity of the positive control group is defined as 100% and the luciferase activity of the control group is defined as 0%.
Polymerase chain reaction (hereinafter “PCR”) primers were designed based on the human PPARγ2 gene sequence (GenBANK accession No. D83233). The recognition sequences for restriction enzyme BglII were added to upstream and downstream regions of a gene encoding human PPARγ2 protein, in which the recognition sequences were necessary for inserting the gene into the restriction site BamHI of the expression plasmid pSG5 (Stratagene) for the gene.
The recognition sequence for restriction enzyme NheI was added to S2 and the recognition sequence for restriction enzyme XhoI was added to AS2 for insertion into the reporter plasmid pGV-P2 (Toyo Ink Mfg. Co., Ltd.).
PCR was carried out using thermostable DNA polymerase Ex-Taq (Takara Shuzo Co., Ltd.) with a human adipose tissue-derived cDNA library (Clontech) as a template and the DNA oligomers S1 and AS1 obtained in Procedure 1 as PCR primers. […] A cycle was repeated 30 times consisting of incubation at 94° C. for one minute, incubation at 55° C. for 30 seconds and incubation at 72° C. for 30 seconds. The resulting DNA fragment of about 1500 bp was partially cleaved by restriction enzyme BglII and inserted into the restriction site BamHI of pSG5 to obtain a human PPARγ expression plasmid pSG5-hPPARγ.
A vector pGV-P2 digest was prepared by digestion with restriction enzymes NheI and XhoI and purification by 1.0% agarose gel electrophoresis. The DNA oligomers S2 and AS2 obtained in Procedure 2 were mixed, incubated in a hot water bath at 94° C. for one minute, and then incubated at 25° C. for one hour to form a double-stranded DNA with S2 and AS2 annealed. Thereafter, the terminals of the double-stranded DNA were phosphorylated using DNA polynucleotide kinase (Toyobo Co., Ltd.) and then ligated to the previously prepared pGV-P2 digest using the restriction sites NheI and XhoI to obtain a reporter plasmid pGV-P2-PPRE having a PPAR response sequence.
The gene was transiently transferred to the human osteosarcoma cell line MG63, and then cells were harvested.
Thereafter, DMSO diluted 20-fold with 10% α-MEM was added to the control group and the positive control group at 5 μl/well. 10% α-MEM was added to the test compound-added group at 95 μl/well. Thereafter, the test compound diluted to various concentrations with DMSO was diluted 20-fold with 10% α-MEM; this was added to the test compound-added group at 5 μl/well.
Thereafter, DMSO was diluted 20-fold with 10% α-MEM; this was added to the control group and the positive control group at 5 μl/well. […] Thereafter, the test compound diluted to various concentrations with DMSO was diluted 20-fold with 10% α-MEM; this was added to the test compound-added group at 5 μl/well.
The cells prepared in Procedures 6 and 7 were cultured for 24 hours and then the medium was removed. […] The mixture was left to stand at room temperature for about 10 minutes and then stirred with a micromixer (TAITEC E-36). The luciferase activity was measured using Analyst (Molecular Devices) and a dose-dependent curve was drawn.
The IC50, Imax, EC50 and Emax of the test compound to be determined are defined as follows.
Here, the concentration of the test compound representing Emax/2 is calculated as EC50. The concentration of the test compound representing (100−Imax)/2 is calculated as IC50. The IC50 and EC50 calculated in this manner were used for evaluating the PPARγ modulator activity.

Where [1] appears, read: maximum luciferase activity by test compound alone, positive control (Compound A) 100%, control 0%, read-out: Emax (%).
The mark [2] stands for this setting: MG63 cells, luciferase activity.
[3] abbreviates: test compound alone, concentration representing Emax/2, MG63 cells, luciferase activity, read-out: EC50.

Like-named read-outs stand apart in the source and are kept apart here.

Take `Cc1cc(Oc2ccc3nc(COc4cccc(C(=O)O)c4)n(C)c3c2)cc(C)c1N.Cl.Cl` [Example 2, 3-{[6-(4-Amino-3,5-dimethylphenoxy)-1-methyl-1H-benzimidazol-2-yl]methoxy}benzoic acid dihydrochloride]: the “Imax (%)” value is reported as −44%. Besides, the Emax under setting [1] stood at 70%. Moreover, the IC50 under setting [2] was 56.1 nM. Besides, the EC50 under setting [3] is 3.28 nM.
As for `Cl.Cn1c(COc2cccc(C(=O)O)c2)nc2ccc(Oc3cccc(F)c3)cc21` [Example 8, 3-{[6-(3-Fluorophenoxy)-1-methyl-1H-benzimidazol-2-yl]methoxy}benzoic acid hydrochloride], the “Imax (%)” value was −34%. For the same compound, the Emax under setting [1] stood at 39%. Moreover, under setting [2], the half-inhibitory concentration (IC50) is 73.3 nM. Moreover, the EC50 under setting [3] was 7.72 nM.
On to `Cl.Cn1c(COc2cccc(C(=O)O)c2)nc2ccc(Oc3ccc(Cl)c(F)c3)cc21` [Example 10, 3-{[6-(4-Chloro-3-fluorophenoxy)-1-methyl-1H-benzimidazol-2-yl]methoxy}benzoic acid hydrochloride], for which the “Imax (%)” value was −50%. Under setting [1], the Emax amounted to 42%. Moreover, under setting [2], the IC50 came out at 33.2 nM. In addition, the EC50 under setting [3] was found to be 2.06 nM.
In the same order, the values of `Cl.Cn1c(COc2cccc(C(=O)O)c2)nc2ccc(Oc3ccc(F)c(Cl)c3)cc21` [Example 12, 3-{[6-(3-Chloro-4-fluorophenoxy)-1-methyl-1H-benzimidazol-2-yl]methoxy}benzoic acid hydrochloride] are −43%, 42%, 40.4 nM and 2.34 nM.
Regarding `Cl.Cn1c(COc2cccc(C(=O)O)c2)nc2ccc(Oc3ccccc3)cc21` [Example 14, 3-[(1-Methyl-6-phenoxy-1H-benzimidazol-2-yl)methoxy]benzoic acid hydrochloride], the EC50 is 51.7 nM, the Emax was 54% and the “Imax (%)” value is −35%.
Turning to `Cl.Cl.Cn1c(COc2cccc(C(=O)O)c2)nc2ccc(Oc3ccccc3)nc21` [Example 16, 3-[(3-Methyl-5-phenoxy-3H-imidazo[4,5-b]pyridin-2-yl)methoxy]benzoic acid dihydrochloride], the “Imax (%)” value is recorded as −44%. Moreover, the Emax under setting [1] is 46%. Also, the IC50 under setting [2] was 402 nM. The EC50 under setting [3] was 26.4 nM.
